Reference: patent US12589087B2, “Enantiomer selective action on neurotransmission” (The Board of Trustees of the Leland Stanford Junior …, priority 2021, dated 2026)

Tests used:
mGluR1 = assay: radioligand binding assay, cerebellum membranes; settings: mGluR1, rat; 100 μM
Method: Nonspecific AMPA, kainate and NMDA binding assays were performed by Eurofins Discovery (Cerep) using rat cerebral cortex membranes and radiolabeled [^3H]AMPA, [^3H]kainic acid and [^3H]CGP 39653, respectively. All compounds were tested at a single concentration of 100 uM in triplicate. mGluR1, mGluR2, mGluR5 and GABAB binding assays were performed by Eurofins Discovery. mGluR1 assay was performed using rat cerebellum membranes and radiolabeled [^3H]quisqalic acid. mGluR2 assay was performed using recombinant Chem-1 cells and [^3H]LY341495. mGluR5 and GABAB binding assays were performed using recombinant CHO-K1 cells and […], respectively. All compounds were tested at a single concentration of 100 uM in triplicate.
All receptor assays were performed exactly as described in Example 1. Functional assays of all GABAA, NMDA (GluN2A-GluN2D) and AMPA (GluA2) receptor subunits were performed by SB Drug Discovery as a part of their CNS discovery panel using FLIPR technology. All compounds were tested at 7 concentrations in triplicate and EC50/IC50 was determined where applicable. Functional GABAB assay was performed by Eurofins Discovery (Cerep) using Ca^2+-dependent fluorimetry in RBL cells expressing human GABAB (B1/B2) receptor. All compounds were tested at a single concentration of 100 uM in triplicate. […]

[1] = biological target: T1, human glutamine synthetase (Homo sapiens, UniProt P15104); assay: Catalysis of 2MeGlu C5-amidation by glutamine synthetase; type: biochemical
T1 construct: purchased Abcam ab222354
Method: The procedure was adapted from an existing protocol. To a reaction mixture in a 1.5 mL microcentrifuge tube containing 10 mM substrate, 10 mM ATP, 20 mM MgCl2, 40 mM NH4Cl, 25 mM 2-mercaptoethanol in 100 mM imidazole-HCl buffer pH 7.0, recombinant human glutamine synthetase (final concentration: 5 ng/mL) was added. The tubes were incubated in a preheated thermomixer at 37° C. and shaken at 600 rpm (30 s on, 30 s off). 5 μL aliquots were collected in triplicate every 5 min and immediately diluted with 195 μL of cold 60% ACN containing 10 μM Glu-d5 and Gln-d5 as internal standards in a 96 well plate. After collecting all samples, 200 μL of ACN was added to all wells and the plate was shaken at 1000 rpm for 5 min at room temperature, and then stored at −80° C. until analysis.

[2] = system: mouse cerebral synaptosomes; assay: Potassium-induced neurotransmitter release assay; type: cell-based; settings: preloaded with 100 μM for 15 min at 37° C., high-potassium depolarization
Method: To each tube, 2.5 μL of a test compound solution (final concentration 100 μM) in Buffer KRP or Buffer KRP alone were added. Samples were incubated for 15 min at 37° C., briefly chilled on ice, and then immediately centrifuged and washed twice with Buffer KRP. The resulting pellets were then resuspended in either Buffer KRP (500 μL) or Buffer K-KRP (500 μL). Samples were immediately centrifuged or incubated for 5, 10 or 15 min at 37° C., then centrifuged and washed with Buffer KRP. Resulting pellets were resuspended in 400 μL of 60% ACN containing 2.5 μM Glu-d5 and 2.5 μM Gln-d5 as internal standards.
Synaptosome uptake and high potassium-induced release assays were performed as described in Example 1. Uptake assays used 250 μL aliquots of the synaptosome suspension transferred to a pre-chilled 0.8 mL 96 well plate. 5 μL of a test compound solution (0.5 mM; final concentration: 10 μM to compare directly to our previous work was added to each well and incubated at 0° C. or 37° C. After 10, 20 or 30 min, samples were chilled on ice and immediately sedimented (2,500 g for 15 min at 4° C.) and washed with Buffer S (0.5 mL, ×2). Resulting pellets were resuspended in 200 μL of 60% ACN containing 5 μM GABA-d6 and stored at −80° C. until analysis. Potassium-induced release assay used 500 μL aliquots of the synaptosome suspension transferred to pre-chilled microcentrifuge tubes. 2.5 μL of a test compound solution (20 mM; final concentration: 100 μM) in Buffer KRP was added to each tube and incubated for 15 min at 37° C., briefly chilled on ice, and then immediately sedimented (8,000 g for 4 min at 4° C.) and washed with Buffer KRP, followed by centrifugation, twice. The resulting pellets were resuspended in 500 μL of Buffer KRP or Buffer K-KRP and incubated for 5, 10 or 15 min at 37° C., sedimented (8,000 g for 4 min at 4° C.), and washed with Buffer KRP. Resulting pellets were resuspended in 400 μL of 60% ACN containing 2.5 μM GABA-d6 as internal standard and stored at −80° C. until analysis.

[3] = system: mouse hippocampal slice cultures; assay: Kainic acid neurodegeneration in hippocampal slice cultures (propidium iodide); type: cell-based
Method: We employed a standard technique of ex vivo experimentation to determine the efficacy of 2MeGlu, 2MeGln, and 4APA to prevent neurodegeneration. Mouse hippocampal slice cultures were prepared and then exposed to one of the three test compounds at either 5 or 50 μM for one hour. Then media was changed to contain either 2 or 5 μM kanic acid (KA) for 24 hr. […] After 24, the amount of neurodegeneration was assayed with propidium iodide staining. Increasing the dose of KA led to greater neurodegeneration at 5 μM than at 2 μM.

T1 sequence (P15104 whole entry): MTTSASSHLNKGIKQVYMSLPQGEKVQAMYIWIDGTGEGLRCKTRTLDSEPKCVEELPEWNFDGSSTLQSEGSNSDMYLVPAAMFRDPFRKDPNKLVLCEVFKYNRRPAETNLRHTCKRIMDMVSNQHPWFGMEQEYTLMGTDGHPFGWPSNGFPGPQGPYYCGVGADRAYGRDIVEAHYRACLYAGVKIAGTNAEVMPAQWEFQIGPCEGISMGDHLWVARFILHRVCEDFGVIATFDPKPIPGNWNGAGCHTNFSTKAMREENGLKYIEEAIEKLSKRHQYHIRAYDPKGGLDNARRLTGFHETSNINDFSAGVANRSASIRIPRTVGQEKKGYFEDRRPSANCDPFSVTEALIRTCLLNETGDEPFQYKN

| SMILES | % of radioligand binding inhibition (mGluR1) [%] | substrate of GS (amidation to 2MeGln) [1] | potassium-induced release from synaptosomes [2] | reduction of neurodegeneration ([3]; 50 μM compound, lower dose of KA (2 μM)) | neuroprotection at the higher dose of KA ([3]; 5 or 50 μM compound, 5 μM KA) |
| --- | --- | --- | --- | --- | --- |
| C[C@@](N)(CCC(=O)O)C(=O)O [(R)-2MeGlu, (R)-2-methylglutamic acid] | −3 | not a substrate | not significantly altered by depolarization |  |  |
| CC(N)(CCC(N)=O)C(=O)O (racemic) [rac-2MeGln, rac-2-methylglutamine] |  |  |  | approximately 50% | Neither dose of 2MeGlu or 2MeGln was neuroprotective |
| C[C@](N)(CCC(=O)O)C(=O)O [(S)-2MeGlu, (S)-2-methylglutamic acid] | 6 | substrates | released upon depolarization |  |  |
